In US6737383B1, “Herbicidal oxadiazolidines” (priority 1999, dated 2004):

Key:
bedstraw = experiment: Test B pre/postemergence bedstraw; format: in vivo, Galium aparine
Outline: (§1)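 Test chemicals in a non-phytotoxic solvent mixture with surfactant were sprayed preemergence onto planted seeds and postemergence onto plants 2 to 18 cm tall (1- to 4-leaf stage). After twelve to sixteen days in a greenhouse, injury was visually rated against untreated controls from 0 (no effect) to 10 (complete control).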

blackgrass = experiment: Test B pre/postemergence blackgrass; format: in vivo, Alopecurus myosuroides
Outline: as §1

surinam grass = experiment: Test B pre/postemergence surinam grass; format: in vivo, Brachiaria decumbens
Outline: as §1

cocklebur = experiment: Test B pre/postemergence cocklebur; format: in vivo, Xanthium strumarium
Outline: as §1

corn = experiment: Test B pre/postemergence corn; format: in vivo, Zea mays
Outline: as §1

crabgrass = experiment: Test B pre/postemergence crabgrass; format: in vivo, Digitaria sanguinalis
Outline: as §1

giant foxtail = experiment: Test B pre/postemergence giant foxtail; format: in vivo, Setaria faberii
Outline: as §1

morningglory = experiment: Test B pre/postemergence morningglory; format: in vivo, Ipomoea hederacea
Outline: as §1

pigweed = experiment: Test B pre/postemergence pigweed; format: in vivo, Amaranthus retroflexus
Outline: as §1

rape = experiment: Test B pre/postemergence rape; format: in vivo, Brassica napus
Outline: as §1

soybean = experiment: Test B pre/postemergence soybean; format: in vivo, Glycine max
Outline: as §1

sugar beet = experiment: Test B pre/postemergence sugar beet; format: in vivo, Beta vulgaris
Outline: as §1

velvetleaf = experiment: Test B pre/postemergence velvetleaf; format: in vivo, Abutilon theophrasti
Outline: as §1

wheat = experiment: Test B pre/postemergence wheat; format: in vivo, Triticum aestivum
Outline: as §1

wild oat = experiment: Test B pre/postemergence wild oat; format: in vivo, Avena fatua
Outline: as §1

purple nutsedge = experiment: Test B pre/postemergence purple nutsedge; format: in vivo, Cyperus rotundus
Outline: as §1

rice = experiment: Test B flood test rice; format: in vivo, Oryza sativa
Outline: (§2)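 Each value is a visual injury score relative to controls, with 10 meaning complete control and 0 no effect. Evaluation took place twelve to sixteen days after the 2-leaf-stage plants were treated and kept in the greenhouse.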

smallflower flatsedge = experiment: Test B flood test smallflower flatsedge; format: in vivo, Cyperus difformis
Outline: as §2

duck salad = experiment: Test B flood test duck salad; format: in vivo, Heteranthera limosa
Outline: as §2

bamyardgrass = experiment: Test B flood test barnyardgrass; format: in vivo, Echinochloa crus-galli
Outline: as §2

[1] = Postemergence, Rate 125 g/ha, scale of 0 to 10 where 0 is no effect and 10 is complete control
[2] = Preemergence, Rate 31 g/ha, visual rating, scale 0 to 10 (0 no effect, 10 complete control)
[3] = Preemergence, Rate 62 g/ha, scale 0 to 10 (0 no effect, 10 complete control)
[4] = Preemergence, Rate 250 g/ha, scale 0 to 10 (0 no effect, 10 complete control)
[5] = Postemergence, Rate 31 g/ha, visual rating, scale 0 to 10 (0 no effect, 10 complete control)
[6] = Postemergence, Rate 62 g/ha, scale 0 to 10, 0 is no effect, 10 is complete control
[7] = Preemergence, Rate 125 g/ha, scale of 0 to 10 where 0 is no effect and 10 is complete control
[8] = Rate 31 g/ha, Pre-emergence section (flood test species), scale 0 to 10
[9] = Rate 62 g/ha, flood test species, Pre-emergence, visual evaluation after twelve to sixteen days
[10] = Rate 125 g/ha, under heading Pre-emergence, flood test species, visual evaluation after twelve to sixteen days
[11] = Rate 250 g/ha, Pre-emergence (flood test species), scale 0 to 10, 0 is no effect, 10 is complete control

CCOC(=O)CC(C(=O)OCC)n1c(=O)on(C(=O)N(c2ccccc2)C(C)C)c1=O (stereo not shown) [Compound 614]
Plant response rating, Bedstraw (bedstraw; [1]): 0
Bedstraw plant response rating (bedstraw; [2]): 0
Bedstraw plant response rating (bedstraw; [3]): 0
Plant response rating, Bedstraw (bedstraw; [4]): 0
Blackgrass plant response rating (blackgrass; [5]): 0
Plant response rating, Blackgrass (blackgrass; [6]): 0
Plant response rating, Blackgrass (blackgrass; [1]): 0
Blackgrass plant response rating (blackgrass; [2]): 0
Blackgrass plant response rating (blackgrass; [3]): 0
Blackgrass plant response rating (blackgrass; [7]): 0
Plant response rating, Blackgrass (blackgrass; [4]): 3
B. signalgrass plant response rating (surinam grass; [5]): 0
Plant response rating, B. signalgrass (surinam grass; [6]): 0
Plant response rating, B. signalgrass (surinam grass; [1]): 0
B. signalgrass plant response rating (surinam grass; [2]): 0
B. signalgrass plant response rating (surinam grass; [3]): 0
B. signalgrass plant response rating (surinam grass; [7]): 0
Plant response rating, B. signalgrass (surinam grass; [4]): 0
Cocklebur plant response rating (cocklebur; [5]): 0
Plant response rating, Cocklebur (cocklebur; [6]): 0
Plant response rating, Cocklebur (cocklebur; [1]): 0
Cocklebur plant response rating (cocklebur; [2]): 0
Cocklebur plant response rating (cocklebur; [3]): 0
Cocklebur plant response rating (cocklebur; [7]): 0
Plant response rating, Cocklebur (cocklebur; [4]): 0
Corn plant response rating (corn; [5]): 0
Plant response rating, Corn (corn; [6]): 0
Plant response rating, Corn (corn; [1]): 0
Corn plant response rating (corn; [2]): 0
Corn plant response rating (corn; [3]): 0
Corn plant response rating (corn; [7]): 0
Plant response rating, Corn (corn; [4]): 0
Crabgrass plant response rating (crabgrass; [5]): 0
Plant response rating, Crabgrass (crabgrass; [6]): 0
Plant response rating, Crabgrass (crabgrass; [1]): 1
Crabgrass plant response rating (crabgrass; [2]): 0
Crabgrass plant response rating (crabgrass; [3]): 0
Crabgrass plant response rating (crabgrass; [7]): 6
Plant response rating, Crabgrass (crabgrass; [4]): 8
Giant foxtail plant response rating (giant foxtail; [5]): 0
Plant response rating, Giant foxtail (giant foxtail; [6]): 0
Plant response rating, Giant foxtail (giant foxtail; [1]): 0
Giant foxtail plant response rating (giant foxtail; [2]): 0
Giant foxtail plant response rating (giant foxtail; [3]): 0
Giant foxtail plant response rating (giant foxtail; [7]): 4
Plant response rating, Giant foxtail (giant foxtail; [4]): 9
Morningglory plant response rating (morningglory; [5]): 0
Plant response rating, Morningglory (morningglory; [6]): 2
Plant response rating, Morningglory (morningglory; [1]): 2
Morningglory plant response rating (morningglory; [3]): 0
Morningglory plant response rating (morningglory; [7]): 0
Plant response rating, Morningglory (morningglory; [4]): 0
Redroot pigweed plant response rating (pigweed; [5]): 0
Plant response rating, Redroot pigweed (pigweed; [6]): 0
Plant response rating, Redroot pigweed (pigweed; [1]): 0
Redroot pigweed plant response rating (pigweed; [3]): 0
Redroot pigweed plant response rating (pigweed; [7]): 0
Plant response rating, Redroot pigweed (pigweed; [4]): 0
Rape plant response rating (rape; [5]): 0
Plant response rating, Rape (rape; [6]): 0
Plant response rating, Rape (rape; [1]): 0
Rape plant response rating (rape; [3]): 0
Rape plant response rating (rape; [7]): 0
Plant response rating, Rape (rape; [4]): 0
Soybean plant response rating (soybean; [5]): 2
Plant response rating, Soybean (soybean; [6]): 3
Plant response rating, Soybean (soybean; [1]): 3
Soybean plant response rating (soybean; [3]): 0
Soybean plant response rating (soybean; [7]): 0
Plant response rating, Soybean (soybean; [4]): 0
Sugarbeets plant response rating (sugar beet; [5]): 0
Plant response rating, Sugarbeets (sugar beet; [6]): 0
Plant response rating, Sugarbeets (sugar beet; [1]): 0
Sugarbeets plant response rating (sugar beet; [3]): 0
Sugarbeets plant response rating (sugar beet; [7]): 0
Plant response rating, Sugarbeets (sugar beet; [4]): 0
Velvetleaf plant response rating (velvetleaf; [5]): 0
Plant response rating, Velvetleaf (velvetleaf; [6]): 0
Plant response rating, Velvetleaf (velvetleaf; [1]): 0
Velvetleaf plant response rating (velvetleaf; [3]): 0
Velvetleaf plant response rating (velvetleaf; [7]): 0
Plant response rating, Velvetleaf (velvetleaf; [4]): 0
Wheat plant response rating (wheat; [5]): 0
Plant response rating, Wheat (wheat; [6]): 0
Plant response rating, Wheat (wheat; [1]): 0
Wheat plant response rating (wheat; [3]): 0
Wheat plant response rating (wheat; [7]): 0
Plant response rating, Wheat (wheat; [4]): 0
Wild oats plant response rating (wild oat; [5]): 0
Plant response rating, Wild oats (wild oat; [6]): 0
Plant response rating, Wild oats (wild oat; [1]): 0
Wild oats plant response rating (wild oat; [3]): 0
Wild oats plant response rating (wild oat; [7]): 0
Plant response rating, Wild oats (wild oat; [4]): 0
Nutsedge plant response rating (purple nutsedge; [5]): 0
Plant response rating, Nutsedge (purple nutsedge; [6]): 0
Plant response rating, Nutsedge (purple nutsedge; [1]): 0
Nutsedge plant response rating (purple nutsedge; [7]): 0
Plant response rating, Nutsedge (purple nutsedge; [4]): 0
Rice plant response rating (rice; [8]): 0
Plant response rating, Rice (0 to 10 scale, 0 is no effect, 10 is complete control) (rice; [9]): 0
Rice plant response rating (0 to 10 scale, 0 is no effect, 10 is complete control) (rice; [10]): 0
Rice plant response rating (rice; [11]): 0
S. Flatsedge plant response rating (smallflower flatsedge; [8]): 0
Plant response rating, S. Flatsedge (0 to 10 scale, 0 is no effect, 10 is complete control) (smallflower flatsedge; [9]): 0
S. Flatsedge plant response rating (0 to 10 scale, 0 is no effect, 10 is complete control) (smallflower flatsedge; [10]): 0
S. Flatsedge plant response rating (smallflower flatsedge; [11]): 0
Ducksalad plant response rating (duck salad; [8]): 0
Plant response rating, Ducksalad (0 to 10 scale, 0 is no effect, 10 is complete control) (duck salad; [9]): 0
Ducksalad plant response rating (0 to 10 scale, 0 is no effect, 10 is complete control) (duck salad; [10]): 0
Ducksalad plant response rating (duck salad; [11]): 0
Barnyardgrass plant response rating (bamyardgrass; [8]): 0
Plant response rating, Barnyardgrass (0 to 10 scale, 0 is no effect, 10 is complete control) (bamyardgrass; [9]): 0
Barnyardgrass plant response rating (0 to 10 scale, 0 is no effect, 10 is complete control) (bamyardgrass; [10]): 0
Barnyardgrass plant response rating (bamyardgrass; [11]): 0
